Laboratory results as given in article PMC12670405, “Second-Generation AURKA-Targeting PROTACs: Structural Optimization toward in Vivo Degradation in Neuroblastoma” (Journal of Medicinal Chemistry, 2025).

Assays:
Assay in all cases: KINOMEscan scanMAX
Format in all cases: binding
[1] = target: T1, NEK1 (Homo sapiens, UniProt Q96PY6); conditions: read-out: Percent Control
T1 construct: purchased Eurofins Discovery (DiscoverX KINOMEscan scanMAX)
Protocol: (§1) The kinome-wide binding assay was performed by Eurofins Discovery using the scanMAX screening platform. More information can be found on the Eurofins Discovery Web site.

[2] = target: T2, CLK2 (Homo sapiens, UniProt P49760); conditions: read-out: Percent Control
T2 construct: purchased Eurofins Discovery (DiscoverX KINOMEscan scanMAX)
Protocol: as §1

[3] = target: T3, AURKC (Homo sapiens, UniProt Q9UQB9); conditions: read-out: Percent Control
T3 construct: purchased Eurofins Discovery (DiscoverX KINOMEscan scanMAX)
Protocol: as §1

[4] = target: T4, EIF2AK1 (Homo sapiens, UniProt Q9BQI3); conditions: read-out: Percent Control
T4 construct: purchased Eurofins Discovery (DiscoverX KINOMEscan scanMAX)
Protocol: as §1

[5] = target: T5, EGFR(L861Q) (Homo sapiens, UniProt P00533, L861Q); conditions: read-out: Percent Control
T5 construct: purchased Eurofins Discovery (DiscoverX KINOMEscan scanMAX)
Protocol: as §1

[6] = target: T6, TAOK1 (Homo sapiens, UniProt Q7L7X3); conditions: read-out: Percent Control
T6 construct: purchased Eurofins Discovery (DiscoverX KINOMEscan scanMAX)
Protocol: as §1

[7] = test system: EGFR(L747-T751del,Sins)
Protocol: as §1

[8] = target: T7, KIT(A829P) (Homo sapiens, UniProt P10721, A829P); conditions: read-out: Percent Control
T7 construct: purchased Eurofins Discovery (DiscoverX KINOMEscan scanMAX)
Protocol: as §1

[9] = target: T8, PRKD2 (Homo sapiens, UniProt Q9BZL6); conditions: read-out: Percent Control
T8 construct: purchased Eurofins Discovery (DiscoverX KINOMEscan scanMAX)
Protocol: as §1

[10] = target: T9, SNARK (Homo sapiens, UniProt Q9H093); conditions: read-out: Percent Control
T9 construct: purchased Eurofins Discovery (DiscoverX KINOMEscan scanMAX)
Protocol: as §1

[11] = target: T10, MEK6 (Homo sapiens, UniProt P52564); conditions: read-out: Percent Control
T10 construct: purchased Eurofins Discovery (DiscoverX KINOMEscan scanMAX)
Protocol: as §1

[12] = target: T11, IKK-beta (Homo sapiens, UniProt O14920); conditions: read-out: Percent Control
T11 construct: purchased Eurofins Discovery (DiscoverX KINOMEscan scanMAX)
Protocol: as §1

[13] = target: T12, GRK7 (Homo sapiens, UniProt Q8WTQ7); conditions: read-out: Percent Control
T12 construct: purchased Eurofins Discovery (DiscoverX KINOMEscan scanMAX)
Protocol: as §1

[14] = target: T13, ULK1 (Homo sapiens, UniProt O75385); conditions: read-out: Percent Control
T13 construct: purchased Eurofins Discovery (DiscoverX KINOMEscan scanMAX)
Protocol: as §1

[15] = target: T14, GSK3B (Homo sapiens, UniProt P49841); conditions: read-out: Percent Control
T14 construct: purchased Eurofins Discovery (DiscoverX KINOMEscan scanMAX)
Protocol: as §1

[16] = target: T15, DCAMKL1 (Homo sapiens, UniProt O15075); conditions: read-out: Percent Control
T15 construct: purchased Eurofins Discovery (DiscoverX KINOMEscan scanMAX)
Protocol: as §1

[17] = target: T16, RAF1 (Homo sapiens, UniProt P04049); conditions: read-out: Percent Control
T16 construct: purchased Eurofins Discovery (DiscoverX KINOMEscan scanMAX)
Protocol: as §1

[18] = target: T17, TEC (Homo sapiens, UniProt P42680); conditions: read-out: Percent Control
T17 construct: purchased Eurofins Discovery (DiscoverX KINOMEscan scanMAX)
Protocol: as §1

[19] = target: T18, ABL1(F317I)-phosphorylated (Homo sapiens, UniProt P00519, F317I); conditions: read-out: Percent Control
T18 construct: purchased Eurofins Discovery (DiscoverX KINOMEscan scanMAX)
Protocol: as §1

[20] = target: T19, KIT(V559D,V654A) (Homo sapiens, UniProt P10721, V559D/V654A); conditions: read-out: Percent Control
T19 construct: purchased Eurofins Discovery (DiscoverX KINOMEscan scanMAX)
Protocol: as §1

[21] = target: T20, RET(V804M) (Homo sapiens, UniProt P07949, V804M); conditions: read-out: Percent Control
T20 construct: purchased Eurofins Discovery (DiscoverX KINOMEscan scanMAX)
Protocol: as §1

[22] = target: T21, CAMK2D (Homo sapiens, UniProt Q13557); conditions: read-out: Percent Control
T21 construct: purchased Eurofins Discovery (DiscoverX KINOMEscan scanMAX)
Protocol: as §1

[23] = target: T22, BLK (Homo sapiens, UniProt P51451); conditions: read-out: Percent Control
T22 construct: purchased Eurofins Discovery (DiscoverX KINOMEscan scanMAX)
Protocol: as §1

[24] = target: T23, PIK3CA(H1047L) (Homo sapiens, UniProt P42336, H1047L); conditions: read-out: Percent Control
T23 construct: purchased Eurofins Discovery (DiscoverX KINOMEscan scanMAX)
Protocol: as §1

[25] = target: T24, RET (Homo sapiens, UniProt P07949); conditions: read-out: Percent Control
T24 construct: purchased Eurofins Discovery (DiscoverX KINOMEscan scanMAX)
Protocol: as §1

[26] = target: T25, NEK6 (Homo sapiens, UniProt Q9HC98); conditions: read-out: Percent Control
T25 construct: purchased Eurofins Discovery (DiscoverX KINOMEscan scanMAX)
Protocol: as §1

[27] = target: T26, ITK (Homo sapiens, UniProt Q08881); conditions: read-out: Percent Control
T26 construct: purchased Eurofins Discovery (DiscoverX KINOMEscan scanMAX)
Protocol: as §1

[28] = target: T27, FLT3(D835V) (Homo sapiens, UniProt P36888, D835V); conditions: read-out: Percent Control
T27 construct: purchased Eurofins Discovery (DiscoverX KINOMEscan scanMAX)
Protocol: as §1

[29] = target: T28, ERK3 (Homo sapiens, UniProt Q16659); conditions: read-out: Percent Control
T28 construct: purchased Eurofins Discovery (DiscoverX KINOMEscan scanMAX)
Protocol: as §1

[30] = target: T29, TNIK (Homo sapiens, UniProt Q9UKE5); conditions: read-out: Percent Control
T29 construct: purchased Eurofins Discovery (DiscoverX KINOMEscan scanMAX)
Protocol: as §1

[31] = target: T30, ERK8 (Homo sapiens, UniProt Q8TD08); conditions: read-out: Percent Control
T30 construct: purchased Eurofins Discovery (DiscoverX KINOMEscan scanMAX)
Protocol: as §1

[32] = target: T31, JAK3(JH1domain-catalytic) (Homo sapiens, UniProt P52333); conditions: read-out: Percent Control
T31 construct: JAK3(JH1domain-catalytic); purchased Eurofins Discovery (DiscoverX KINOMEscan scanMAX)
Protocol: as §1

[33] = target: T32, ABL1(F317L)-nonphosphorylated (Homo sapiens, UniProt P00519, F317L); conditions: read-out: Percent Control
T32 construct: purchased Eurofins Discovery (DiscoverX KINOMEscan scanMAX)
Protocol: as §1

T20 sequence (P07949 29-1114 V804M): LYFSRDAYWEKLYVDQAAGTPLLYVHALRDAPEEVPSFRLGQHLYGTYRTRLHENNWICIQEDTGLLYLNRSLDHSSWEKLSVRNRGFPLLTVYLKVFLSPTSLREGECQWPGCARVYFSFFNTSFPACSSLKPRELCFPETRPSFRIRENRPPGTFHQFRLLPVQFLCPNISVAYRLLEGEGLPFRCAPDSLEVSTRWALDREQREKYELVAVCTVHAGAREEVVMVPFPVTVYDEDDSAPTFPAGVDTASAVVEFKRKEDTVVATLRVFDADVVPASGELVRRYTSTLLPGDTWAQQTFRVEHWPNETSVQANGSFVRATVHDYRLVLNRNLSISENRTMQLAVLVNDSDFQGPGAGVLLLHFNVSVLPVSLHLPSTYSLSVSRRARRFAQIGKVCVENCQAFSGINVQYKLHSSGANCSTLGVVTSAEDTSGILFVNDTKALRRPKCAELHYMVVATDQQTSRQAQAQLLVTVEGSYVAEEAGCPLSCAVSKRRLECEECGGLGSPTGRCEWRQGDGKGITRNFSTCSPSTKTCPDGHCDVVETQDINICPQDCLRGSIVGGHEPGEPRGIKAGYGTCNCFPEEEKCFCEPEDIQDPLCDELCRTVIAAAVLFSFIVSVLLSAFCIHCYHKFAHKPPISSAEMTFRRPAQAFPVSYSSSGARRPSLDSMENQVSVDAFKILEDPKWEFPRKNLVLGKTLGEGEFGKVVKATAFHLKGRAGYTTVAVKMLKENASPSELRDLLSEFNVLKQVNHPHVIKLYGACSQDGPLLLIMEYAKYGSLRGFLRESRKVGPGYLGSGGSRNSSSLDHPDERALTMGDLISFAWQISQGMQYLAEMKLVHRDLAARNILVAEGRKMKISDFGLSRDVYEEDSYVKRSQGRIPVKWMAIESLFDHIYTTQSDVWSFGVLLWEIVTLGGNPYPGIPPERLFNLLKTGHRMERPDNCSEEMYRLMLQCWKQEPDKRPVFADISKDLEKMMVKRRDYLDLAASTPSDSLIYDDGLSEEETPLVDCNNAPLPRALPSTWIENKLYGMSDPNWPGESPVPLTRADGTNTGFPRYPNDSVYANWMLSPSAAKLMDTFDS
T7 sequence (P10721 26-976 A829P): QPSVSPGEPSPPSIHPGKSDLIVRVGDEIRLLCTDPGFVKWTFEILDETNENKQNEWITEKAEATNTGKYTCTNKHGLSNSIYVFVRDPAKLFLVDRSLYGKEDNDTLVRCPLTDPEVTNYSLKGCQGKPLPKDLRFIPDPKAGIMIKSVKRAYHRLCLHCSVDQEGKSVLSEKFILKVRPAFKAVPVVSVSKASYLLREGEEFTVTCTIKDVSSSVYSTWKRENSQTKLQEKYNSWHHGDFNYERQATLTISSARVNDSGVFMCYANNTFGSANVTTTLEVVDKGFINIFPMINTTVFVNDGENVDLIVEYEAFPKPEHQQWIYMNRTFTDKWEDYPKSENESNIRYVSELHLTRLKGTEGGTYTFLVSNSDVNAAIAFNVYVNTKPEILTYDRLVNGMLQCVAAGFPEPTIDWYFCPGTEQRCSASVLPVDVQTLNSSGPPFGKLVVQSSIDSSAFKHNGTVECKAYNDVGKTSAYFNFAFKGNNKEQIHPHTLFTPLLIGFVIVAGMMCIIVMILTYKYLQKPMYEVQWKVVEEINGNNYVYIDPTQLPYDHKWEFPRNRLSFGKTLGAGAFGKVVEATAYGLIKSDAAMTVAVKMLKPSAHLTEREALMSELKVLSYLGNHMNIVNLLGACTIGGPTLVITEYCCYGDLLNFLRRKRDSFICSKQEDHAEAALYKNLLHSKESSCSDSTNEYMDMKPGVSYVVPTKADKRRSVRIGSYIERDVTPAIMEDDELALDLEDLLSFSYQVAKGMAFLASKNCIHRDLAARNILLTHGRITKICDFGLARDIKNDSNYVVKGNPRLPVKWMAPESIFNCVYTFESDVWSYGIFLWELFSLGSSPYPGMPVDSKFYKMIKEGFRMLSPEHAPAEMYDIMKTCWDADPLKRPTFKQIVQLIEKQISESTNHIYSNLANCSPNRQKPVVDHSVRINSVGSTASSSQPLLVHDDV
T14 sequence (P49841 whole entry): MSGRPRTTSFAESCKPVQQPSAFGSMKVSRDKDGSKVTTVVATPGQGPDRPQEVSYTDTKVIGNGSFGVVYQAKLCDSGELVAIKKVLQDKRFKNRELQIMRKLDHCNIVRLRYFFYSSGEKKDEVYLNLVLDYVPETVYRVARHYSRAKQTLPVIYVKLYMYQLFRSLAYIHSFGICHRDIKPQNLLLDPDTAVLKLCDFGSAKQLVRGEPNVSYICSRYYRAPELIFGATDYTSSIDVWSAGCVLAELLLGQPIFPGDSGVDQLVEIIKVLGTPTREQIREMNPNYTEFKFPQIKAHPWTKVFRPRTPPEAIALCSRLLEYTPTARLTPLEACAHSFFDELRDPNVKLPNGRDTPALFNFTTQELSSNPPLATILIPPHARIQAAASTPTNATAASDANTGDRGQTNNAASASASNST
T1 sequence (Q96PY6 whole entry): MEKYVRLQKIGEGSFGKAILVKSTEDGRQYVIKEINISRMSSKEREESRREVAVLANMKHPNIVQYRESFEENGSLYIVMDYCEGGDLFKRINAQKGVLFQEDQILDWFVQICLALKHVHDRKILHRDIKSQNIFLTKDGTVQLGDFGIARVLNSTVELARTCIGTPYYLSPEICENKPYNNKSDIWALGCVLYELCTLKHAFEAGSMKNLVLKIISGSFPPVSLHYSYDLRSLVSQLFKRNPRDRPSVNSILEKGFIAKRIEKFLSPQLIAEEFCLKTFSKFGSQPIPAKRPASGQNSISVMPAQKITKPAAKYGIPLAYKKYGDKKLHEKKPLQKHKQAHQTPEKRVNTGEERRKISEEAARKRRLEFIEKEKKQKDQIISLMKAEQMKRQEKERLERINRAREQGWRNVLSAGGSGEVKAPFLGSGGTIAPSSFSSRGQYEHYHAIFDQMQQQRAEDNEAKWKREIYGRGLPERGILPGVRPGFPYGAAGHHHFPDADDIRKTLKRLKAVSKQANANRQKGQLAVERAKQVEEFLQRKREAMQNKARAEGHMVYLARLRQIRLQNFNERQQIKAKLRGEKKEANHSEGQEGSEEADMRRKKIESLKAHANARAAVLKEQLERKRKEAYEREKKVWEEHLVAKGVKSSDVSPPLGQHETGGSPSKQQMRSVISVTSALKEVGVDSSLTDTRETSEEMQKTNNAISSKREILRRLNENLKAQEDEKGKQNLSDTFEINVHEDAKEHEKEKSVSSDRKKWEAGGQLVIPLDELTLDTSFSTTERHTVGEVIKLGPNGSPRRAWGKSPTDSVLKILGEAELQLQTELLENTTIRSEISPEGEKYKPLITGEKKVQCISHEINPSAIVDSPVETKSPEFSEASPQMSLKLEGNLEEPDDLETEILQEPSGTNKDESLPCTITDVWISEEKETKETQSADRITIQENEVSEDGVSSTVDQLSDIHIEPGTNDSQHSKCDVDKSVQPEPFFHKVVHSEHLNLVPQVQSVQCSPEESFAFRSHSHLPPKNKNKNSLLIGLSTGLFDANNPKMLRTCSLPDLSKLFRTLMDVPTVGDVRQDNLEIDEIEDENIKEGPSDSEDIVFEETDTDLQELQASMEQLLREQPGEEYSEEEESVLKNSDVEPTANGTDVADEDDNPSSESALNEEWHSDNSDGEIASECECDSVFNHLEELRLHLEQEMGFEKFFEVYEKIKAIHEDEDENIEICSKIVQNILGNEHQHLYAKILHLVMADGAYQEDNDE
T5 sequence (P00533 25-1210 L861Q): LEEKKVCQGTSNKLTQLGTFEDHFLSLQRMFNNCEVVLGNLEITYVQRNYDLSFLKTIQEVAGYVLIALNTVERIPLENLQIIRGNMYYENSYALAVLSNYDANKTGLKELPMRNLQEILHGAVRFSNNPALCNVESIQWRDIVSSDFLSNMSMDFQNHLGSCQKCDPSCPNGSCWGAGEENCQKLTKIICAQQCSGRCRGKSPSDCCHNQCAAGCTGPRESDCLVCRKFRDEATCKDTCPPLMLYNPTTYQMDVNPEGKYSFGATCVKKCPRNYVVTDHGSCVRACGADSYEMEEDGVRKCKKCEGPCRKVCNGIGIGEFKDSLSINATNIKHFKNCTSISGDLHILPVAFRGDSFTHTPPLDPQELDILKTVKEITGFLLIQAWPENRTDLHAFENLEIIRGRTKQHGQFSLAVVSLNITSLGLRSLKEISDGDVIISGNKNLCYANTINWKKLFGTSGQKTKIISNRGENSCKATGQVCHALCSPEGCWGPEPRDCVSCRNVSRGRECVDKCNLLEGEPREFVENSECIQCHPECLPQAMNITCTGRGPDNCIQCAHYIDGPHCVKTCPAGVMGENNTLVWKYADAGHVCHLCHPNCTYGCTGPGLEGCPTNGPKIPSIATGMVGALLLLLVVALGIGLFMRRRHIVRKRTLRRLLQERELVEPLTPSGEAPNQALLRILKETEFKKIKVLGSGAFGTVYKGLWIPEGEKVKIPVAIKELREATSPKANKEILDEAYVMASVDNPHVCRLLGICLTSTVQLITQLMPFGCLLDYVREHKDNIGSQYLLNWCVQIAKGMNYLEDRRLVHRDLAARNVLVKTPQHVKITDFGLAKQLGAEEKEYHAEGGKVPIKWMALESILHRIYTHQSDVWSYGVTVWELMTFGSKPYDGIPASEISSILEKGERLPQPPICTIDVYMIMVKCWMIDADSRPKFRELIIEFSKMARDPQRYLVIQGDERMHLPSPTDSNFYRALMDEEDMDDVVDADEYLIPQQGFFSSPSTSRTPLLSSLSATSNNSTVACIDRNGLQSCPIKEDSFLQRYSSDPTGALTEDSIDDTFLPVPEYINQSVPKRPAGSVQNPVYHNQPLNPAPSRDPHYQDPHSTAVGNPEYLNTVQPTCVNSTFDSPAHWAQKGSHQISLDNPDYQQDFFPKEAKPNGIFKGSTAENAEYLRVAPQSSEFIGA
T24 sequence (P07949 29-1114): as the sequence (P07949 29-1114 V804M) above, with M776V counted along it
T19 sequence (P10721 26-976 V559D/V654A): as the sequence (P10721 26-976 A829P) above, with V534D, V629A, P804A counted along it

## Cc1cc(Nc2ccc(F)c(CC3(C(=O)N4CCC(F)(CN5CCN(c6ccc(N7CCC(=O)NC7=O)cn6)CC5)CC4)CCN(Cc4cccc(Cl)c4F)CC3)n2)n[nH]1 [SK5527]
[1]; 100 nM
  remaining binding at 0.1 µM: 100%
[1]; 1000 nM
  remaining binding at 1 µM: 86%
[2]; 100 nM
  remaining binding at 0.1 µM: 88%
[2]; 1000 nM
  remaining binding at 1 µM: 93%
[3]; 100 nM
  remaining binding at 0.1 µM: 100%
[3]; 1000 nM
  remaining binding at 1 µM: 85%
[4]; 100 nM
  remaining binding at 0.1 µM: 81%
[4]; 1000 nM
  remaining binding at 1 µM: 70%
[5]; 100 nM
  remaining binding at 0.1 µM: 95%
[5]; 1000 nM
  remaining binding at 1 µM: 100%
[6]; 100 nM
  remaining binding at 0.1 µM: 79%
[6]; 1000 nM
  remaining binding at 1 µM: 88%
[7]; 100 nM
  Percent Control: 83%
[7]; 1000 nM
  Percent Control: 74%
[8]; 100 nM
  remaining binding at 0.1 µM: 100%
[8]; 1000 nM
  remaining binding at 1 µM: 95%
[9]; 100 nM
  remaining binding at 0.1 µM: 78%
[9]; 1000 nM
  remaining binding at 1 µM: 90%
[10]; 100 nM
  remaining binding at 0.1 µM: 86%
[10]; 1000 nM
  remaining binding at 1 µM: 76%
[11]; 100 nM
  remaining binding at 0.1 µM: 100%
[11]; 1000 nM
  remaining binding at 1 µM: 94%
[12]; 100 nM
  remaining binding at 0.1 µM: 100%
[12]; 1000 nM
  remaining binding at 1 µM: 73%
[13]; 100 nM
  remaining binding at 0.1 µM: 100%
[13]; 1000 nM
  remaining binding at 1 µM: 56%
[14]; 100 nM
  remaining binding at 0.1 µM: 92%
[14]; 1000 nM
  remaining binding at 1 µM: 91%
[15]; 100 nM
  remaining binding at 0.1 µM: 82%
[15]; 1000 nM
  remaining binding at 1 µM: 78%
[16]; 100 nM
  remaining binding at 0.1 µM: 100%
[16]; 1000 nM
  remaining binding at 1 µM: 88%
[17]; 100 nM
  remaining binding at 0.1 µM: 100%
[17]; 1000 nM
  remaining binding at 1 µM: 100%
[18]; 100 nM
  remaining binding at 0.1 µM: 91%
[18]; 1000 nM
  remaining binding at 1 µM: 69%
[19]; 100 nM
  remaining binding at 0.1 µM: 95%
[19]; 1000 nM
  remaining binding at 1 µM: 69%
[20]; 100 nM
  remaining binding at 0.1 µM: 100%
[20]; 1000 nM
  remaining binding at 1 µM: 97%
[21]; 100 nM
  remaining binding at 0.1 µM: 85%
[21]; 1000 nM
  remaining binding at 1 µM: 65%
[22]; 100 nM
  remaining binding at 0.1 µM: 95%
[22]; 1000 nM
  remaining binding at 1 µM: 93%
[23]; 100 nM
  remaining binding at 0.1 µM: 97%
[23]; 1000 nM
  remaining binding at 1 µM: 45%
[24]; 100 nM
  remaining binding at 0.1 µM: 63%
[24]; 1000 nM
  remaining binding at 1 µM: 100%
[25]; 100 nM
  remaining binding at 0.1 µM: 88%
[25]; 1000 nM
  remaining binding at 1 µM: 39%
[26]; 100 nM
  remaining binding at 0.1 µM: 96%
[26]; 1000 nM
  remaining binding at 1 µM: 54%
[27]; 100 nM
  remaining binding at 0.1 µM: 100%
[27]; 1000 nM
  remaining binding at 1 µM: 81%
[28]; 100 nM
  remaining binding at 0.1 µM: 100%
[28]; 1000 nM
  remaining binding at 1 µM: 41%
[29]; 100 nM
  remaining binding at 0.1 µM: 100%
[29]; 1000 nM
  remaining binding at 1 µM: 94%
[30]; 100 nM
  remaining binding at 0.1 µM: 96%
[30]; 1000 nM
  remaining binding at 1 µM: 90%
[31]; 100 nM
  remaining binding at 0.1 µM: 89%
[31]; 1000 nM
  remaining binding at 1 µM: 92%
[32]; 100 nM
  remaining binding at 0.1 µM: 100%
[32]; 1000 nM
  remaining binding at 1 µM: 80%
[33]; 100 nM
  remaining binding at 0.1 µM: 97%
[33]; 1000 nM
  remaining binding at 1 µM: 49%
